US12208110B2 (priority 2020, dated 2025)
pEC50: −log10 of the molar value. Where two headings read alike, the source gives them in different places.

Tests used:
Assay type in all cases: cell-based
[1] = tested on: RSV-Fluc (Recombinant Respiratory Syncytial virus strain A2 containing the firefly luciferase reporter); assay: microbe, parasite or virus in culture; details: read-out: RSV-Fluc EC50 (nM, NHBE)
SARS-CoV-2 = assay: microbe, parasite or virus in culture
MT-4 cells = assay: MT4 cytotoxicity analysis (CellTiter-Glo)
How it was run: (§1)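 MT-4 cells were exposed in quadruplicate to 3-fold serial compound dilutions (DMSO stocks 2.5 uM to 10 mM) for five days at 37 °C. Viability was read by CellTiter-Glo luminescence.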

[2] = MT4 cytotoxicity analysis (CellTiter-Glo); details: human, MT4 CC50 (nM)
How it was run: as §1

[3] = human respiratory syncytial virus, NHBE, 72 h
[4] = Severe acute respiratory syndrome coronavirus 2, 48 h
[5] = MT-4 cells, five days, CellTiter-Glo, read-out: MT4 CC50

| Compound | EC50 [1, 3] [nM] | pEC50 (SARS-CoV-2; [4]) | CC50 (MT-4 cells; human, 5 days) [µM] | CC50 (MT-4 cells; [5]) [µM] | EC50 ([1]; NHBE cells, RSV-Fluc MOI 0.1, three days, luciferase readout) [nM] | pEC50 (SARS-CoV-2) | CC50 at 5 days [2] [nM] |
| --- | --- | --- | --- | --- | --- | --- | --- |
| CCCCCCCCCCCCCCCCCCOC[C@H](COP(=O)(O)OC[C@H]1O[C@@](C#N)(c2ccc3c(N)ncnn23)[C@H](O)[C@@H]1O)NC(=O)c1ccccc1 [Example 30, ((2R,3S,4R,5R)-5-(4-aminopyrrolo[2,1-f][1,2,4]triazin-7-yl)-5-cyano-3,4-dihydroxytetrahydrofuran-2-yl)methyl ((R)-2-benzamido-3-(octadecyloxy)propyl) hydrogen phosphate] | 130 | 5.08 | 50 | – | – | – | – |
| CCCCCCCCCCCCCCCCCCOC[C@H](CO[P@@](=O)(S)OC[C@H]1O[C@@](C#N)(c2ccc3c(N)ncnn23)[C@H](O)[C@@H]1O)OCc1ccccc1 [Example 67, O-(((2R,3S,4R,5R)-5-(4-aminopyrrolo[2,1-f][1,2,4]triazin-7-yl)-5-cyano-3,4-dihydroxytetrahydrofuran-2-yl)methyl) O—((R)-2-(benzyloxy)-3-(octadecyloxy)propyl) O-hydrogen (R)-phosphorothioate] | 190 | 6.92 | 26 | – | – | – | – |
| CCCCCCCCCCCCCCCCCCOC[C@H](COP(=O)(O)OC[C@H]1O[C@@](C#N)(c2ccc3c(N)ncnn23)[C@H](O)[C@@H]1O)NC(=O)c1cccc(C#N)c1 [Example 57, ((2R,3S,4R,5R)-5-(4-aminopyrrolo[2,1-f][1,2,4]triazin-7-yl)-5-cyano-3,4-dihydroxytetrahydrofuran-2-yl)methyl ((R)-2-(3-cyanobenzamido)-3-(octadecyloxy)propyl) hydrogen phosphate] | 330 | 5.31 | 50 | – | – | – | – |
| CCCCCCCCCCCCCCCCCCOC[C@H](COP(=O)(O)OC[C@H]1O[C@@](C#N)(c2ccc3c(N)ncnn23)[C@H](O)[C@@H]1O)Oc1ccccc1C(=O)O [Example 38, 2-(((2R)-1-(((((2R,3S,4R,5R)-5-(4-aminopyrrolo[2,1-f][1,2,4]triazin-7-yl)-5-cyano-3,4-dihydroxytetrahydrofuran-2-yl)methoxy)(hydroxy)phosphoryl)oxy)-3-(octadecyloxy)propan-2-yl)oxy)benzoic acid] | 160 | – | 50 | – | – | – | – |
| CCCCCCCCCCCCCCCCCCOC[C@@H](OCc1ccccc1)C(C)OP(=O)(O)OC[C@H]1O[C@@](C#N)(c2ccc3c(N)ncnn23)[C@H](O)[C@@H]1O (single isomer, unassigned) [Example 12] | 240 | 5.08 | 10 | – | – | – | – |
| CCCCCCCCCOCCCOP(=O)(O)OC[C@H]1O[C@@](C#N)(c2ccc3c(N)ncnn23)[C@H](O)[C@@H]1O [Example 25, ((2R,3S,4R,5R)-5-(4-Aminopyrrolo[2,1-f][1,2,4]triazin-7-yl)-5-cyano-3,4-dihydroxytetrahydrofuran-2-yl)methyl (3-(nonyloxy)propyl) hydrogen phosphate] | 5000 | 5.00 | – | 50 | – | – | – |
| CCCCCCCCCCCCCCCCCCOC[C@H](COP(=O)(O)OC[C@H]1O[C@@](C#N)(c2ccc3c(N)ncnn23)[C@H](O)[C@@H]1O)OC(=O)c1ccccc1 [Example 17, (2R)-1-(((((2R,3S,4R,5R)-5-(4-aminopyrrolo[2,1-f][1,2,4]triazin-7-yl)-5-cyano-3,4-dihydroxytetrahydrofuran-2-yl)methoxy)(hydroxy)phosphoryl)oxy)-3-(octadecyloxy)propan-2-yl benzoate] | 120 | 6.05 | 50 | – | – | – | – |
| CCCCCCCCCCCCSCCCOP(=O)(O)OC[C@H]1O[C@@](C#N)(c2ccc3c(N)ncnn23)[C@H](O)[C@@H]1O [Example 63, [(2R,3S,4R,5R)-5-(4-Aminopyrrolo[2,1-f][1,2,4]triazin-7-yl)-5-cyano-3,4-dihydroxy-tetrahydrofuran-2-yl]methyl 3-dodecylsulfanylpropyl hydrogen phosphate] | 470 | 5.00 | 50 | – | – | – | – |
| CCCCCCCCCCCCCCCCCCOC[C@@H](OCc1ccccc1)C(C)OP(=O)(O)OC[C@H]1O[C@@](C#N)(c2ccc3c(N)ncnn23)[C@H](O)[C@@H]1O (single isomer, unassigned) [Example 13] | – | – | 29 | – | 240 | 5.02 | – |
| CCCCCCCCCCCCCCCCCCOC[C@H](COP(=O)(O)OC[C@H]1O[C@@](C#N)(c2ccc3c(N)ncnn23)[C@H](O)[C@@H]1O)Nc1ccc(C#N)cn1 [Example 42, ((2R,3S,4R,5R)-5-(4-aminopyrrolo[2,1-f][1,2,4]triazin-7-yl)-5-cyano-3,4-dihydroxytetrahydrofuran-2-yl)methyl ((R)-2-((5-cyanopyridin-2-yl)amino)-3-(octadecyloxy)propyl) hydrogen phosphate] | 180 | 5.34 | – | – | – | – | 550 |
| CCCCCCCCCCCCCCCCCCOC[C@H](COP(=O)(O)OC[C@H]1O[C@@](C#N)(c2ccc3c(N)ncnn23)[C@H](O)[C@@H]1O)N(C)Cc1cc(F)cc(C#N)c1 [Example 6, ((2R,3S,4R,5R)-5-(4-aminopyrrolo[2,1-f][1,2,4]triazin-7-yl)-5-cyano-3,4-dihydroxytetrahydrofuran-2-yl)methyl ((R)-2-((3-cyano-5-fluorobenzyl)(methyl)amino)-3-(octadecyloxy)propyl) hydrogen phosphate] | 570 | 5.00 | 50 | – | – | – | – |
| CCCCCCCCCCCCCCCCCCOC[C@H](COP(=O)(O)OC[C@H]1O[C@@](C#N)(c2ccc3c(N)ncnn23)[C@H](O)[C@@H]1O)OCc1cc(F)cc(S(C)(=O)=O)c1 [Example 32, ((2R,3S,4R,5R)-5-(4-aminopyrrolo[2,1-f][1,2,4]triazin-7-yl)-5-cyano-3,4-dihydroxytetrahydrofuran-2-yl)methyl ((R)-2-((3-fluoro-5-(methylsulfonyl)benzyl)oxy)-3-(octadecyloxy)propyl) hydrogen phosphate] | 40 | 6.92 | – | – | – | – | 340 |
| CCCCCCCCOCCOP(=O)(O)OC[C@H]1O[C@@](C#N)(c2ccc3c(N)ncnn23)[C@H](O)[C@@H]1O [Example 26, ((2R,3S,4R,5R)-5-(4-Aminopyrrolo[2,1-f][1,2,4]triazin-7-yl)-5-cyano-3,4-dihydroxytetrahydrofuran-2-yl)methyl (2-(octyloxy)ethyl) hydrogen phosphate] | 5000 | 5.00 | – | 50 | – | – | – |
| CCCCCCCCCCCCCCCCCCOC[C@H](CO[P@@](=O)(S)OC[C@H]1O[C@@](C#N)(c2ccc3c(N)ncnn23)[C@H](O)[C@@H]1O)OCc1ccccc1 [Example 28, O-(((2R,3S,4R,5R)-5-(4-aminopyrrolo[2,1-f][1,2,4]triazin-7-yl)-5-cyano-3,4-dihydroxytetrahydrofuran-2-yl)methyl) O—((R)-2-(benzyloxy)-3-(octadecyloxy)propyl)S-hydrogen (R)-phosphorothioate] | 190 | 5.42 | – | – | – | – | 24000 |
| CCCCCCCCCCCCCCCCSCCCOP(=O)(O)OC[C@H]1O[C@@](C#N)(c2ccc3c(N)ncnn23)[C@H](O)[C@@H]1O [Example 65, [(2R,3S,4R,5R)-5-(4-Aminopyrrolo[2,1-f][1,2,4]triazin-7-yl)-5-cyano-3,4-dihydroxy-tetrahydrofuran-2-yl]methyl 3-hexadecylsulfanylpropyl hydrogen phosphate] | – | – | 50 | – | – | – | – |
| CCCCCCCCCCCCCCCCCCOC[C@H](COCc1cc(F)cc(C#N)c1)OP(=O)(O)OC[C@H]1O[C@@](C#N)(c2ccc3c(N)ncnn23)[C@H](O)[C@@H]1O [Example 36, ((2R,3S,4R,5R)-5-(4-aminopyrrolo[2,1-f][1,2,4]triazin-7-yl)-5-cyano-3,4-dihydroxytetrahydrofuran-2-yl)methyl ((R)-1-((3-cyano-5-fluorobenzyl)oxy)-3-(octadecyloxy)propan-2-yl) hydrogen phosphate] | 190 | 5.92 | – | – | – | – | 28000 |
| CCCCCCCCCCCCCCCCCCOC[C@H](COc1ccc(C#N)cn1)OP(=O)(O)OC[C@H]1O[C@@](C#N)(c2ccc3c(N)ncnn23)[C@H](O)[C@@H]1O [Example 41, ((2R,3S,4R,5R)-5-(4-aminopyrrolo[2,1-f][1,2,4]triazin-7-yl)-5-cyano-3,4-dihydroxytetrahydrofuran-2-yl)methyl ((R)-1-((5-cyanopyridin-2-yl)oxy)-3-(octadecyloxy)propan-2-yl) hydrogen phosphate] | 63 | 6.89 | – | – | – | – | 1900 |
| CCCCCCCCCCCOCCOP(=O)(O)OC[C@H]1O[C@@](C#N)(c2ccc3c(N)ncnn23)[C@H](O)[C@@H]1O [Example 27, ((2R,3S,4R,5R)-5-(4-Aminopyrrolo[2,1-f][1,2,4]triazin-7-yl)-5-cyano-3,4-dihydroxytetrahydrofuran-2-yl)methyl (2-(undecyloxy)ethyl) hydrogen phosphate] | 5000 | 5.00 | – | 50 | – | – | – |
| CCCCCCCCCCCCCCCCCC(=O)NC[C@H](COP(=O)(O)OC[C@H]1O[C@@](C#N)(c2ccc3c(N)ncnn23)[C@H](O)[C@@H]1O)OCc1cc(F)cc(C#N)c1 [Example 45, ((2R,3S,4R,5R)-5-(4-aminopyrrolo[2,1-f][1,2,4]triazin-7-yl)-5-cyano-3,4-dihydroxytetrahydrofuran-2-yl)methyl ((R)-2-((3-cyano-5-fluorobenzyl)oxy)-3-stearamidopropyl) hydrogen phosphate] | 82 | 6.85 | – | – | – | – | 950 |
